Several values for one entry are separate records, joined by “and”; a condition that tells them apart may be missing. Identical values can stand only once. Marks after values point to notes of the source that are not given here.
Test system: human rotavirus strain Wa
Assay: Rotavirus infection assay in HT29 cells (crystal violet, % uninfected cells)
Type: cell-based
Settings: for activity in preventing virus infection of the cells: over a range of concentrations
Description: The HT29 cell line was used to propagate the human rotavirus strain Wa (neuraminidase resistant) in the presence of 1 μg/ml trypsin in Dulbecco's minimal essential medium (DMEM) supplemented with 10% foetal calf serum and penicillin/streptomycin (100 μg/ml/100 units/ml). Rotavirus was harvested by freeze thawing twice, spun at 750 g to remove cell debris and stored at −80° C. The rotavirus was assayed and found to contain […] plaque forming units (pfu)/ml.
The infection assay used was based on a number of published assays (Scott et al 1979; Smith et al 1979; Guarino et al 1996; Superb et al 2001). Confluent HT29 cells grown in DMEM (seeded at 3×10^5/ml in 96 well plates) were washed twice in sterile PBS. Doubling dilutions of each of the products to be screened (initial concentration 5 mg/ml) were made in the plate in 50 μl volumes of DMEM. Virus was added (10^4 pfu/well) to all wells except the cells only control and plates were then incubated for two hours in 5% CO2 at 37° C. Other controls included virus plus cells, lipids only, pure GM3 and pure GD3. Following the two-hour incubation trypsin was added to all the wells containing virus at a concentration of 2 μg/ml—this step cleaves VP4 to polypeptides VP8 and VP5 and is needed for the virion to penetrate into the cells' interior. Plates were incubated at 37° C. in 5% CO2 for seven days and were checked daily for cytopathic effect in the virus only control wells. Media was removed and plates washed in sterile PBS, air-dried and fixed with methanol for one minute. Plates were air dried and then stained with 100 μl/well of 1% crystal violet (351884W, BDH, England) for five minutes. Plates were washed four times with sterile water to remove excess stain. 100 μl of acetic acid per well was added to solubilise the stain and absorbance was read at a wavelength of 595 nm in a Biorad ELISA plate reader. Each sample was assayed on a minimum of three separate occasions and the percentage of uninfected cells calculated.
Statistical analysis was performed using an unpaired Student t test (InStat for MacIntosh) to compare the effect of the lipid products derived from bovine milk with the virus only control at the lowest dilution of the product.

Row | Substance | Percentage of HT29 cells uninfected by rotavirus (15.625 μg/ml) | Percentage of HT29 cells uninfected by rotavirus (31.25 μg/ml) | Percentage of HT29 cells uninfected by rotavirus (62.5 μg/ml) | Percentage of HT29 cells uninfected by rotavirus (250 μg/ml, mean +/− spread) | activity in preventing virus infection of the cells | Percentage of HT29 cells uninfected by rotavirus (7.8125 μg/ml) | Percentage of HT29 cells uninfected by rotavirus (125 μg/ml)
1 | disialoganglioside GD3 | 31 +/− 1.5% | 40+/−3% and 40 +/− 2.5*** % | 59 +/− 1.4*** % | 57 +/− 1*** % | showed activity over a range of concentrations |  | 
2 | Monosialoganglioside GM3 | 33 +/− 2.5% | 43+/−10% |  |  | showed activity over a range of concentrations | 34 +/− 1.5% | 49 +/− 8*** %

Source: patent US20110300229A1, “TREATING OR PREVENTING ROTAVIRUS INFECTION” (FONTERRA CO-OPERATIVE GROUP LIMITED, priority 2007, published 2011)
